Source: patent US10682417B2, “Targeted sensitization of non-del(5q) malignant cells” (H. LEE MOFFITT CANCER CENTER AND RESEARCH INSTITUTE, INC., priority 2013, dated 2020)

Tests used:
U937 cells = test: Apoptosis after dual Cdc25C/PP2Acα shRNA knockdown plus lenalidomide, U937 cells; format: cell-based; details: dual Cdc25C and PP2Acα shRNA knockdown 48 hours, then lenalidomide 5 μM for 48 hours
Experimental: (§1) FIGS. 2A-2B are images of an RT-PCR gel (FIG. 2A) and Western blot (FIG. 2B) to detect PP2A and Cdc25C gene (FIG. 2A) and protein (FIG. 2B) expression in U937 cells infected with mock (lane 1), lentiviral vectors encoding non-target shRNA control (lane 2), shCdc25C (lane 3), shPP2Acα (lane 4), shCdc25C and PP2Acα (lane 5) and negative for PCR (lane 6) and harvested 48 hours after incubation. FIGS. 2C and 2D are bar graphs showing P2Acα and Cdc25c mRNA expression (copies/GAPDH) in U937 cells infected with mock, lentiviral vectors encoding non-target shRNA control, shCdc25C, shPP2Acα, or shCdc25C and PP2Acα. FIGS. 2E-2F are bar graphs showing apoptosis (%) in U937 cells (E) or BM-MNC (F) that were infected with lentiviral vectors containing various constructs as indicated for 48 hours and then treated with or without lenalidomide at the concentration of […] for additional 48 hours before being analyzed for apoptosis. […]
(§2) U937 cells were infected with mock (lane 1), lentiviral vectors encoding non-target shRNA control (lane 2), shCdc25C (lane 3), shPP2Acα (lane 4), shCdc25C and PP2Acα (lane 5) and negative for PCR (lane 6). […] The U937 cells (FIG. 2C) or BM-MNC (FIG. 2D) were infected with lentiviral vectors containing various constructs as indicated for 48 hours and then treated with or without lenalidomide at the concentration of 5 μM for additional 48 hours before analyzed for apoptosis. […]

[1] = system: BM-MNC from non-(del)5q MDS patients; test: Apoptosis after dual Cdc25C/PP2Acα shRNA knockdown plus lenalidomide, BM-MNC; format: cell-based, human; details: dual knockdown 48 hours, then lenalidomide 5 μM for 48 hours, p<0.001 vs shRNA control plus lenalidomide, five patients
Experimental: as §1, §2

del5q MDS = details: patients with del5q MDS; cited from earlier work

Nc1cccc2c1CN(C1CCC(=O)NC1=O)C2=O (racemic) [lenalidomide, (RS)-3-(4-Amino-1-oxo 1,3-dihydro-2H-isoindol-2-yl)piperidine-2,6-dione]
apoptotic response to lenalidomide (U937 cells): increases apoptotic response | apoptotic response to lenalidomide [1]: increases apoptotic response | median duration of response (del5q MDS): 2.5 years
